# Laboratory results published in ChEMBL document CHEMBL1921731, “Novel antileukemic agents derived from tamibarotene and nitric oxide donors” (Bioorg Med Chem Lett, 2011).
# Columns and labels:
# [1] = Induction of NO release from L-cysteine in phosphate buffer at pH 7.4 at 0.4 mM after 3 hrs by Griess assay; assay type: physicochemical; settings: pH 7.4, 3 h, 400 µM
# HL-60 [2] = assay: Antiproliferative activity against human HL60 cells after 48 hrs by MTT assay; assay type: functional, cell-based; settings: HL-60, 48 h
# NB-4 [3] = assay: Antiproliferative activity against human NB4 cells after 48 hrs by MTT assay; assay type: functional, cell-based; settings: NB-4, 48 h
# K562 [4] = assay: Antiproliferative activity against human K562 cells after 48 hrs by MTT assay; assay type: functional, cell-based; settings: K562, 48 h
# HL-60 [5] = assay: Ratio of tamibarotene IC50 to compound IC50 for human HL60 cells; assay type: functional
# NB-4 [6] = assay: Ratio of tamibarotene IC50 to compound IC50 for human NB4 cells; assay type: functional
# K562 [7] = assay: Ratio of tamibarotene IC50 to compound IC50 for human K562 cells; assay type: functional
SMILES,Activity [1],IC50 (HL-60 [2]) [µM],IC50 (K562 [4]) [µM],IC50 (NB-4 [3]) [µM],Ratio IC50 (HL-60 [5]),Ratio IC50 (NB-4 [6]),Ratio IC50 (K562 [7])
C[C@H](NC(=O)c1ccc(C(=O)Nc2ccc3c(c2)C(C)(C)CCC3(C)C)cc1)C(=O)OCc1c(-c2ccccc2)no[n+]1[O-],Active,6.97,60.4,5.1,,,
CC1(C)CCC(C)(C)c2cc(NC(=O)c3ccc(C(=O)N[C@@H](Cc4ccccc4)C(=O)OCc4c(-c5ccccc5)no[n+]4[O-])cc3)ccc21,Active,0.5,22.6,0.75,,,
CC1(C)CCC(C)(C)c2cc(NC(=O)c3ccc(C(=O)O)cc3)ccc21 [TAMIBAROTENE],,8.94,42.4,4.81,,,
CC1(C)CCC(C)(C)c2cc(NC(=O)c3ccc(C(=O)NCCNC(=O)c4ccc(OCc5c(-c6ccccc6)no[n+]5[O-])cc4)cc3)ccc21,Active,1.14,13.3,1.93,,,
CC1(C)CCC(C)(C)c2cc(NC(=O)c3ccc(C(=O)NCC(=O)OCc4c(-c5ccccc5)no[n+]4[O-])cc3)ccc21,Active,0.16,7.12,0.19,56,25,6
CC1(C)CCC(C)(C)c2cc(NC(=O)c3ccc(C(=O)NCCOC(=O)c4ccc(OCc5c(-c6ccccc6)no[n+]5[O-])cc4)cc3)ccc21,Active,12.3,> 1000,10.4,,,
CC(C)[C@H](NC(=O)c1ccc(C(=O)Nc2ccc3c(c2)C(C)(C)CCC3(C)C)cc1)C(=O)OCc1c(-c2ccccc2)no[n+]1[O-],Active,5.85,192,4.39,,,
CC1(C)CCC(C)(C)c2cc(NC(=O)c3ccc(C(=O)OCCOC(=O)c4ccc(OCc5c(-c6ccccc6)no[n+]5[O-])cc4)cc3)ccc21,Active,395,> 1000,119,,,

# The remaining compounds from weak to strong by IC50 (HL-60 [2]), led by results:
Activity [1],IC50 (HL-60 [2]) [µM],IC50 (K562 [4]) [µM],SMILES,IC50 (NB-4 [3]) [µM],Ratio IC50 (HL-60 [5]),Ratio IC50 (NB-4 [6]),Ratio IC50 (K562 [7])
Active,651,> 1000,CC1(C)CCC(C)(C)c2cc(NC(=O)c3ccc(C(=O)OCCCCOC(=O)c4ccc(OCc5c(-c6ccccc6)no[n+]5[O-])cc4)cc3)ccc21,952,,,
Active,486,> 1000,CC1(C)CCC(C)(C)c2cc(NC(=O)c3ccc(C(=O)OCCCCCCOC(=O)c4ccc(OCc5c(-c6ccccc6)no[n+]5[O-])cc4)cc3)ccc21,> 1000,,,
Active,282,> 1000,CC1(C)CCC(C)(C)c2cc(NC(=O)c3ccc(C(=O)OCCCCCOC(=O)c4ccc(OCc5c(-c6ccccc6)no[n+]5[O-])cc4)cc3)ccc21,240,,,
Active,185,> 1000,CC1(C)CCC(C)(C)c2cc(NC(=O)c3ccc(C(=O)OCCCOC(=O)c4ccc(OCc5c(-c6ccccc6)no[n+]5[O-])cc4)cc3)ccc21,140,,,
Active,0.74,64,CC(C)C[C@H](NC(=O)c1ccc(C(=O)Nc2ccc3c(c2)C(C)(C)CCC3(C)C)cc1)C(=O)OCc1c(-c2ccccc2)no[n+]1[O-],0.97,,,
